Measured values reported in patent publication US8703811B2, “Small molecule inhibitors of Plasmodium falciparum dihydroorotate dehydrogenase” (Genzyme Corporation, priority 2008, dated 2014).
pEC50, pIC50: −log10 of the molar value. Like-named read-outs stand apart in the source and are kept apart here.

Legend:
pfDHODH = pfDHODH (Plasmodium falciparum (isolate 3D7), UniProt Q08210); assay: DHODH chromogen reduction (DCIP) assay, pfDHODH; assay type: biochemical, P. falciparum
Excerpt: Type 2 DHODH activity was monitored with either the direct assay measuring the formation of orotate or via a chromogen reduction assay using DCIP. Although the extinction coefficient and absorption wavelength are preferable for the chromogen reduction assay, the inorganic electron acceptor DCIP can be utilized by DHODH as the final electron acceptor in lieu of CoQn when the endogenous substrate is at a low concentration. As such, the direct assay was used to measure the binding affinity of pfDHODH to CoQD and L-DHO. The enzymatic reaction was performed by varying the L-DHO concentration (1-400 μM) or CoQD concentration (1-200 μM) while keeping the other substrate constant and in excess.
Substrate specificity and enzyme inhibition data was analyzed with GraphPad Prism Version 4 for Windows (GraphPad Software). Kinetic constants were calculated by non-linear regression fitting of the data to the Michaelis-Menten equation [36]. IC50 values were determined by non-linear regression fitting of the data to Equation 1: […]

P. falciparum Dd2 = assay: Inhibition of in vitro P. falciparum culture, [3H]-hypoxanthine uptake, Dd2; assay type: cell-based; conditions: read-out: Dd2 EC50
Procedure: (§1) P. falciparum strains D10, 3D7, HB3, and Dd2 were obtained from the Malaria Research and Reference Reagent Resource Center (Manassas, Va.). The parasite strains were maintained in vitro by method of Trager and Jensen. The inhibition of P. falciparum growth in the presence of drug was assessed by the relative reduction of [^3H]-hypoxanthine uptake as previously described. Inhibition data were fitted to Equation 1 using non-linear regression analysis except that the relative velocity of parasite growth was substituted for the rate of product formation.

P. falciparum 3D7 = assay: Inhibition of in vitro P. falciparum culture, [3H]-hypoxanthine uptake, 3D7; assay type: cell-based; conditions: read-out: 3D7 EC50
Procedure: as §1

[1] = Table 2b, read-out: pfDHODH IC50
[2] = Plasmodium falciparum, DD2, Table 2b
[3] = Plasmodium falciparum, 3D7, Table 2b

Sequence of pfDHODH (Q08210 159-565 limits assumed): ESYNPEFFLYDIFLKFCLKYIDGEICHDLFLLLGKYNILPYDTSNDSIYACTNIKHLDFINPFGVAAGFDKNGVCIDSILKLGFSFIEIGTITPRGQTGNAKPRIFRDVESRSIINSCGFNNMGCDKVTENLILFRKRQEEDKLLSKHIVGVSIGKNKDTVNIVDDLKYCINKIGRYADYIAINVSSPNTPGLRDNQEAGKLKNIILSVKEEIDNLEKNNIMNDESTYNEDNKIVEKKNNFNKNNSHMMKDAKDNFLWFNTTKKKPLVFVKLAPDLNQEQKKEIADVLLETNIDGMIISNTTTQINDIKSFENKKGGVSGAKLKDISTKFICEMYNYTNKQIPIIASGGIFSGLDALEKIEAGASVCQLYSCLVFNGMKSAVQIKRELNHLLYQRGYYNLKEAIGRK

`Cc1nc2cc(OC(C)C)ccc2n1-c1ccc(C(=O)NC2CC2)s1` [Compound 94] was tested, and the pIC50 (pfDHODH; [1]) was 6.92, the pEC50 (P. falciparum Dd2; [2]) was 7.21 and the pEC50 (P. falciparum 3D7; [3]) was 7.29.
For `CCCNC(=O)c1ccc(-n2cnc3cncnc32)s1` [Compound 16, N-propyl-5-(9H-purin-9-yl)thiophene-2-carboxamide], the pEC50 (P. falciparum Dd2; [2]) was < 5.00 and the pEC50 (P. falciparum 3D7; [3]) was < 5.00.
For `Cc1nc2ccccc2n1-c1cscc1C(=O)NC1CC1` [Compound 77, N-cyclopropyl-4-(2-methyl-1H-benzo[d]imidazol-1-yl)thiophene-3-carboxamide], the pIC50 (pfDHODH; [1]) was < 4.52, the pEC50 (P. falciparum Dd2; [2]) was < 5.30 and the pEC50 (P. falciparum 3D7; [3]) was < 5.30.
In the case of `O=C(NC1CC1)c1ccc(-c2nc3ccccc3o2)s1` [Compound 80], the pIC50 (pfDHODH; [1]) was < 4.52, the pEC50 (P. falciparum Dd2; [2]) was 5.77 and the pEC50 (P. falciparum 3D7; [3]) was 5.59.
`CCCNC(=O)c1ccc(N2CCCC2)s1` [Compound 14, N-propyl-5-(pyrrolidin-1-yl)thiophene-2-carboxamide] was tested, and the pIC50 (pfDHODH; [1]) was < 3.60, the pEC50 (P. falciparum Dd2; [2]) was < 5.00 and the pEC50 (P. falciparum 3D7; [3]) was < 5.00.
`Cc1nc2cccnc2n1-c1ccc(C(=O)NC2CC2)s1` [Compound 72] gave a pIC50 (pfDHODH; [1]) of 5.95, a pEC50 (P. falciparum Dd2; [2]) of 6.28 and a pEC50 (P. falciparum 3D7; [3]) of 6.44.
With `Cc1nc2cc3ccccc3cc2n1-c1ccc(C(=O)NC2CC2)s1` [Compound 93] the pIC50 (pfDHODH; [1]) was 7.46, the pEC50 (P. falciparum Dd2; [2]) was 7.72 and the pEC50 (P. falciparum 3D7; [3]) was 7.77.
Work on `Cc1nc(-c2ccc(Cl)cc2)cn1-c1ccc(C(=O)NC2CC2)s1` [Compound 96] yielded a pIC50 (pfDHODH; [1]) of 6.60.
`CCCNC(=O)c1ccc(N2CC(C)Sc3ccccc32)s1` (centres unmarked) [Compound 17, 5-(2-methyl-2H-benzo[b][1,4]thiazin-4(3H)-yl)-N-propylthiophene-2-carboxamide] was tested, and the pIC50 (pfDHODH; [1]) was 4.72, the pEC50 (P. falciparum Dd2; [2]) was < 5.00 and the pEC50 (P. falciparum 3D7; [3]) was < 5.00.
In the case of `CCCN(C)C(=O)c1ccc(-n2cnc3ccccc32)s1` [Compound 48], the pIC50 (pfDHODH; [1]) was < 4.52, the pEC50 (P. falciparum Dd2; [2]) was < 5.30 and the pEC50 (P. falciparum 3D7; [3]) was < 5.30.
For `CC[C@H](C)NC(=O)c1ccc(-n2cnc3ccccc32)s1` [Compound 37], the pIC50 (pfDHODH; [1]) was 4.75, the pEC50 (P. falciparum Dd2; [2]) was < 4.70 and the pEC50 (P. falciparum 3D7; [3]) was < 4.70.
For `CCCCC(O)c1ccc(-n2cnc3ccccc32)s1` (centres unmarked) [Compound 85, 1-[5-(1H-benzimidazol-1-yl)-2-thienyl]pentan-1-ol], the pIC50 (pfDHODH; [1]) was < 4.52, the pEC50 (P. falciparum Dd2; [2]) was 5.23 and the pEC50 (P. falciparum 3D7; [3]) was 4.70.
For `O=C(c1ccc(-n2cnc3ccccc32)s1)N1CCCC1` [Compound 26], the pIC50 (pfDHODH; [1]) was < 4.52, the pEC50 (P. falciparum Dd2; [2]) was 4.70 and the pEC50 (P. falciparum 3D7; [3]) was 5.00.
In the case of `CCCC/C(=N\O)c1ccc(-n2cnc3ccccc32)s1` [Compound 86, 1-[5-(1H-benzimidazol-1-yl)-2-thienyl]pentan-1-one oxime], the pIC50 (pfDHODH; [1]) was < 4.52, the pEC50 (P. falciparum Dd2; [2]) was 4.70 and the pEC50 (P. falciparum 3D7; [3]) was 5.00.
In the case of `CCCC/C(=N\OC)c1ccc(-n2cnc3ccccc32)s1` [Compound 89, 1-[5-(1H-benzimidazol-1-yl)-2-thienyl]pentan-1-one O-methyloxime], the pIC50 (pfDHODH; [1]) was < 4.52, the pEC50 (P. falciparum Dd2; [2]) was 5.36 and the pEC50 (P. falciparum 3D7; [3]) was 5.28.
`CCCCNC(=O)c1ccc(-n2cnc3ccccc32)s1` [Compound 29] was tested, and the pIC50 (pfDHODH; [1]) was 4.54, the pEC50 (P. falciparum Dd2; [2]) was 5.14 and the pEC50 (P. falciparum 3D7; [3]) was 4.70.
In the case of `c1ccc2[nH]c(-c3ccc(-c4nc5ccccc5[nH]4)s3)nc2c1` [Compound 81], the pIC50 (pfDHODH; [1]) was < 4.52, the pEC50 (P. falciparum Dd2; [2]) was < 5.30 and the pEC50 (P. falciparum 3D7; [3]) was 5.30.
`Cc1nc2cc(Cl)ccc2n1-c1ccc(C(=O)NC2CC2)s1` [Compound 41] gave a pIC50 (pfDHODH; pfDHODH IC50, Table 2b) of 7.40, a pEC50 (P. falciparum Dd2; Table 2b) of 7.08 and a pEC50 (P. falciparum 3D7; Table 2b) of 7.17.
For `CCNC(=O)c1cccc(-n2c(C)nc3cc(F)ccc32)c1` [Compound 92], the pIC50 (pfDHODH; [1]) was < 4.52, the pEC50 (P. falciparum Dd2; [2]) was < 6.00 and the pEC50 (P. falciparum 3D7; [3]) was < 6.00.
With `CN(C)C(=O)c1ccc(-n2cnc3ccccc32)s1` [Compound 27] the pIC50 (pfDHODH; [1]) was < 4.52, the pEC50 (P. falciparum Dd2; [2]) was < 4.40 and the pEC50 (P. falciparum 3D7; [3]) was < 4.40.
For `c1ccc2oc(-c3ccc(-c4nc5ccccc5o4)s3)nc2c1` [Compound 83], the pIC50 (pfDHODH; [1]) was < 4.52, the pEC50 (P. falciparum Dd2; [2]) was < 5.30 and the pEC50 (P. falciparum 3D7; [3]) was < 5.30.
For `Cn1c(-c2ccc(C(=O)NC3CC3)s2)nc2ccccc21` [Compound 79], the pIC50 (pfDHODH; [1]) was < 4.52, the pEC50 (P. falciparum Dd2; [2]) was < 5.30 and the pEC50 (P. falciparum 3D7; [3]) was < 5.30.
Work on `Cc1nc2ccc(-c3ccccc3)cc2n1-c1ccc(C(=O)NC2CC2)s1` [Compound 98] yielded a pIC50 (pfDHODH; [1]) of 7.05.
In the case of `Cc1nc2cc(F)c(F)cc2n1-c1ccc(C(=O)NC2CC2)s1` [Compound 95], the pIC50 (pfDHODH; [1]) was 6.98.
With `O=C(NC1CC1)c1ccc(-n2nnc3ccccc32)s1` [Compound 99, 5-(1H-benzo[d][1,2,3]triazol-1-yl)-N-cyclopropylthiophene-2-carboxamide] the pIC50 (pfDHODH; [1]) was 4.55.
With `CCCNC(=O)c1ccc(N2CCSc3ccccc32)s1` [Compound 18, 5-(2H-benzo[b][1,4]thiazin-4(3H)-yl)-N-propylthiophene-2-carboxamide] the pIC50 (pfDHODH; [1]) was 5.04, the pEC50 (P. falciparum Dd2; [2]) was < 5.00 and the pEC50 (P. falciparum 3D7; [3]) was < 5.00.
In the case of `CCNC(=O)c1ccc(-n2c(C)nc3cc(F)ccc32)cc1` [Compound 91], the pIC50 (pfDHODH; [1]) was 5.54, the pEC50 (P. falciparum Dd2; [2]) was < 6.30 and the pEC50 (P. falciparum 3D7; [3]) was < 6.30.
For `CCCNC(=O)c1ccc(-n2ccnc2)s1` [Compound 15, 5-(1H-imidazol-1-yl)-N-propylthiophene-2-carboxamide], the pIC50 (pfDHODH; [1]) was 3.78, the pEC50 (P. falciparum Dd2; [2]) was < 5.00 and the pEC50 (P. falciparum 3D7; [3]) was < 5.00.
Compound `Cc1nc2ncccc2n1-c1ccc(C(=O)NC2CC2)s1` [Compound 73] has a pIC50 (pfDHODH; [1]) of 5.32, a pEC50 (P. falciparum Dd2; [2]) of 5.62 and a pEC50 (P. falciparum 3D7; [3]) of 5.89.
With `Cc1nc2cnccc2n1-c1ccc(C(=O)NC2CC2)s1` [Compound 71] the pIC50 (pfDHODH; [1]) was 5.51, the pEC50 (P. falciparum Dd2; [2]) was 5.20 and the pEC50 (P. falciparum 3D7; [3]) was 5.43.
In the case of `O=C(NC1CC1)c1ccc(-n2ncc3ccccc32)s1` [Compound 100, N-cyclopropyl-5-(1H-indazol-1-yl)thiophene-2-carboxamide], the pIC50 (pfDHODH; [1]) was < 4.52.
In the case of `CCCC/C(=N/OC)c1ccc(-n2cnc3ccccc32)s1` [Compound 88, 1-[5-(1H-benzimidazol-1-yl)-2-thienyl]pentan-1-one O-methyloxime], the pIC50 (pfDHODH; [1]) was < 4.52, the pEC50 (P. falciparum Dd2; [2]) was 5.59 and the pEC50 (P. falciparum 3D7; [3]) was 5.27.
`Cc1nc2ccccc2n1-c1cc(C(=O)NC2CC2)cs1` [Compound 78, N-cyclopropyl-5-(2-methyl-1H-benzo[d]imidazol-1-yl)thiophene-3-carboxamide] showed a pIC50 (pfDHODH; [1]) of 5.77, a pEC50 (P. falciparum Dd2; [2]) of 5.69 and a pEC50 (P. falciparum 3D7; [3]) of 5.99.
In the case of `Cn1c(-c2ccc(-c3nc4ccccc4n3C)s2)nc2ccccc21` [Compound 82], the pIC50 (pfDHODH; [1]) was < 4.52, the pEC50 (P. falciparum Dd2; [2]) was < 5.30 and the pEC50 (P. falciparum 3D7; [3]) was < 5.30.
With `Cc1nc2cc(-c3ccccc3)ccc2n1-c1ccc(C(=O)NC2CC2)s1` [Compound 97] the pIC50 (pfDHODH; [1]) was 6.75.
In the case of `NC(=O)c1ccc(-n2cnc3ccccc32)s1` [Compound 28], the pIC50 (pfDHODH; [1]) was < 4.52, the pEC50 (P. falciparum Dd2; [2]) was 4.70 and the pEC50 (P. falciparum 3D7; [3]) was < 4.40.
`O=C(c1ccc(-n2cnc3ccccc32)s1)N1CCC1` [Compound 46] gave a pIC50 (pfDHODH; [1]) of 4.78, a pEC50 (P. falciparum Dd2; [2]) of 5.30 and a pEC50 (P. falciparum 3D7; [3]) of 5.30.
`CCCC/C(=N/O)c1ccc(-n2cnc3ccccc32)s1` [Compound 87, 1-[5-(1H-benzimidazol-1-yl)-2-thienyl]pentan-1-one oxime] was tested, and the pIC50 (pfDHODH; [1]) was < 4.52, the pEC50 (P. falciparum Dd2; [2]) was 5.00 and the pEC50 (P. falciparum 3D7; [3]) was 4.40.
For `CCCNC(=O)c1ccc(N2CCOCC2)s1` [Compound 13, 5-morpholino-N-propylthiophene-2-carboxamide], the pIC50 (pfDHODH; [1]) was < 3.60, the pEC50 (P. falciparum Dd2; [2]) was < 5.00 and the pEC50 (P. falciparum 3D7; [3]) was < 5.00.
In the case of `CCCNC(=O)c1ccc(N2CCOc3ccc(Cl)cc32)s1` [Compound 19, 5-(6-chloro-2H-benzo[b][1,4]oxazin-4(3H)-yl)-N-propylthiophene-2-carboxamide], the pIC50 (pfDHODH; [1]) was 5.12, the pEC50 (P. falciparum Dd2; [2]) was < 5.00 and the pEC50 (P. falciparum 3D7; [3]) was < 5.00.
With `CCCNC(=O)c1ccc(N2CCc3ccccc32)s1` [Compound 20, 5-(indolin-1-yl)-N-propylthiophene-2-carboxamide] the pIC50 (pfDHODH; [1]) was < 4.52, the pEC50 (P. falciparum Dd2; [2]) was < 5.00 and the pEC50 (P. falciparum 3D7; [3]) was < 5.00.
